# Data from patent US6608086B2, “Dihydropyridines and new uses thereof” (Synaptic Pharmaceutical Corporation, priority 1993, dated 2003).
# Counter-ions that a name gives are not always drawn. Like-named read-outs stand apart in the source and are kept apart here.
# How the values were obtained:
# α2A receptor = target: T1, α2A receptor (Homo sapiens, UniProt P08913); assay: Competition binding, [3H]rauwolscine, human α2A receptor; settings: for Ki: [3H]rauwolscine
# T1 construct: host or cells: LM(tk-) cells, line L-α2A
# T1 sequence (P08913 1-465): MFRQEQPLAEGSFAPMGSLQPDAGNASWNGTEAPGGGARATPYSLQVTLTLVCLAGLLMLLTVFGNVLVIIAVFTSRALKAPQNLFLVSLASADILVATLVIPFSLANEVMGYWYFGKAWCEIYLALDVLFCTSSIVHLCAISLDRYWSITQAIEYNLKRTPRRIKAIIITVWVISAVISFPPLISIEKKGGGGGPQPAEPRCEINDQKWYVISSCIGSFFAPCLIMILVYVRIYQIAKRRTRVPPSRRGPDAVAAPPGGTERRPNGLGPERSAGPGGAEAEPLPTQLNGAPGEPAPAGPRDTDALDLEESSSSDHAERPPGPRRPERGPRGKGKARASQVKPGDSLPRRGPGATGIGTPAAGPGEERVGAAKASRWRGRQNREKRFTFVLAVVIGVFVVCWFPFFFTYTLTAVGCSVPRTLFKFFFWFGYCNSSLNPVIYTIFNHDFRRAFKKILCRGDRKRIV
# How it was run: (§1)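 Lysates of LM(tk−) cells stably expressing each α2 subtype were suspended in 25 mM glycylglycine buffer (pH 7.6 at room temperature). Equilibrium competition binding used 0.5 nM [3H]rauwolscine, with nonspecific binding defined by 10 μM phentolamine; bound radioligand was separated by GF/B filtration.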
# α2C receptor = target: T2, α2C receptor (Homo sapiens, UniProt P18825); assay: Competition binding, [3H]rauwolscine, human α2C receptor; settings: for Ki: [3H]rauwolscine
# T2 construct: host or cells: LM(tk-) cells, line L-α2C
# T2 sequence (P18825 1-462): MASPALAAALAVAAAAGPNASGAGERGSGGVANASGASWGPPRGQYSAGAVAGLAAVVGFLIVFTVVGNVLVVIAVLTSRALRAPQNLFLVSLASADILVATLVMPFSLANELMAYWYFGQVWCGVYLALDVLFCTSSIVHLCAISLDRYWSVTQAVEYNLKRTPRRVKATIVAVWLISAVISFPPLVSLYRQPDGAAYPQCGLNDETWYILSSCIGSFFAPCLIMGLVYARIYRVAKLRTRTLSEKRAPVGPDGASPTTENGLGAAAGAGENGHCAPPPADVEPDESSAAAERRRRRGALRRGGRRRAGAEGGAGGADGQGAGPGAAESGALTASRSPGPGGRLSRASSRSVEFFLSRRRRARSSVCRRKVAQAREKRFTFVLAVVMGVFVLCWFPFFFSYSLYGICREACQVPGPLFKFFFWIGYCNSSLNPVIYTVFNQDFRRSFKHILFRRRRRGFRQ
# How it was run: as §1
# [1] = target: T3, α1A Human Adrenergic Receptor (Homo sapiens, UniProt P25100); assay: Radioligand binding, [3H]prazosin, cloned human α1A adrenergic receptor; settings: for Ki: [3H]prazosin
# T3 construct: The entire coding region of α1A (1719 bp); expressed in transfected cells
# T3 sequence (P25100 1-572): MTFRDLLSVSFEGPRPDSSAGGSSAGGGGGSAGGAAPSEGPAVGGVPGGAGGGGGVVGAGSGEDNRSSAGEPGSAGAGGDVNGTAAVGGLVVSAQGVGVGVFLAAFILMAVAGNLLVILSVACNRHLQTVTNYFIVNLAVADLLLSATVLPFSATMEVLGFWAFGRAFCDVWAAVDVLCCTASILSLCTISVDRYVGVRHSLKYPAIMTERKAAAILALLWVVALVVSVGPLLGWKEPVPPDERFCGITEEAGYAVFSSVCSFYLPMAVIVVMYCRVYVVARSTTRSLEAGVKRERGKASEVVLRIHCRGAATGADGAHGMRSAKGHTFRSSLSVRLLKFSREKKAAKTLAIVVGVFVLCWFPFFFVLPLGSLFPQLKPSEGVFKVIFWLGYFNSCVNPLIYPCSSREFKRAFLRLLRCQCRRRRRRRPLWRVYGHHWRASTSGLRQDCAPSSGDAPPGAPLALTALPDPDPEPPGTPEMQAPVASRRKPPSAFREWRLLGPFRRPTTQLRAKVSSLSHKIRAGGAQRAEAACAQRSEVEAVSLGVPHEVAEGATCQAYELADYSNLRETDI
# How it was run: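 [3H]prazosin 0.5 nM, transfected LM(tk−) membranes, 37° C, 20 min. Buffer 50 mM Tris-HCl/1 mM MgCl2/0.1% ascorbate, pH 7.5. NSB: 10 μM phentolamine. Filtration harvest.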
# [2] = human receptor, LM(tk-) cell lysates, mean, read-out: PKi alpha-2 2a (converted)
# [3] = human receptor, LM(tk-) cell lysates, mean, read-out: PKi alpha-2 2c (converted)
compound,measurement,setting,value
"CCC1=C(C(N)=O)C(c2ccc([N+](=O)[O-])cc2)C(C(=O)NCCCN2CCC(c3ccccc3)(c3ccccc3)CC2)=C(CCCCN)N1 (stereo not drawn) [Example 171, 2-(4-Aminobutyl)-5-carboxamido-6-ethyl-1,4-dihydro-4-(4-nitrophenyl)-3-{N-[3-(4,4-diphenylpiperidin-1-yl)propyl]}carboxamidopyridine]",Ki,α2A receptor; [2],1100 nM
same,Ki,α2C receptor; [3],575 nM
same,Ki,"[1]; PKi alpha-1 1a, cloned human receptor, LM(tk-) cell membranes, mean",1050 nM
"CNC(=O)C1=C(C)NC(C)=C(C(=O)NCCCN2CCC(c3ccccc3)(c3ccccc3)CC2)C1c1ccc([N+](=O)[O-])cc1 (stereo not drawn) [Example 38, 1,4-Dihydro-2,6-dimethyl-5-(N-methyl)carboxamido-4-(4-nitrophenyl)-3-{N-[3-(4,4-diphenylpiperidin-1-yl)propyl]}carboxamidopyridine]",pKi alpha-2 2a,α2A receptor,6.40
same,pKi alpha-2 2c,α2C receptor,6.49
same,pKi alpha-1 1a,[1],6.21
"CCNC(=O)C1=C(CC)NC(COCCN)=C(C(=O)NCCCN2CCC(C(=O)OCC)(c3ccccc3)CC2)C1c1ccc([N+](=O)[O-])cc1 (stereo not drawn) [Example 192, 2-[(2-Aminoethoxy)methyl]-3-{N-[3-(4-ethoxycarbonyl-4-phenyl-piperidin-1-yl)propyl]}carboxamido-1,4-dihydro-6-ethyl-5-(N-ethyl)carboxamido-4-(4-nitrophenyl)pyridine]",Ki,α2A receptor; [2],3720 nM
same,Ki,α2C receptor; [3],1480 nM
same,Ki,"[1]; cloned human receptor, LM(tk-) cell membranes, mean, read-out: PKi alpha-1 1a (converted)",3020 nM
"CCC1=C(C(N)=O)C(c2ccc([N+](=O)[O-])cc2)C(C(=O)NCCCN2CCN(c3ccccc3)CC2)=C(CC)N1 (stereo not drawn) [Example 104, 5-Carboxamido-2,6-diethyl-1,4-dihydro-4-(4-nitrophenyl)-3-{N-[3-(4-phenylpiperazin-1-yl)propyl]}carboxamido-pyridine hydrochloride hydrate]",Ki,"α2A receptor; human α2A receptor, LM(tk−) cells, read-out: pKi alpha-2 2a (converted)",5.25 nM
same,Ki,"α2C receptor; human α2C receptor, LM(tk−) cells, read-out: pKi alpha-2 2c (converted)",15.8 nM
same,Ki,"[1]; cloned human α1A receptor, LM(tk−) cell membranes, read-out: pKi alpha-1 1a (converted)",132 nM
"COC(=O)C1=C(C)NC(c2ccoc2)=C(C(=O)NCCCN2CCC(c3ccccc3)CC2)C1c1ccc([N+](=O)[O-])cc1 (stereo not drawn) [Example 65, 2-(Furan-3-yl)-1,4-dihydro-5-methoxycarbonyl-6-methyl-4-(4-nitrophenyl)-5-{N-[3-(4-phenylpiperidin-1-yl)propyl]}carboxamidopyridine hydrochloride hydrate]",Ki,"α2A receptor; LM(tk-) cell line L-α2A, SEM and n in lines below, read-out: pKi alpha-2 2a (converted)",200 nM
same,Ki,"α2C receptor; LM(tk-) cell line L-α2C, SEM and n in lines below, read-out: pKi alpha-2 2c (converted)",83.2 nM
same,Ki,"[1]; cloned human receptor in LM(tk-) cell membranes, SEM and n in lines below, read-out: pKi alpha-1 1a (converted)",129 nM
